13 molecules from ChEMBL document CHEMBL1212844, “Synthesis and biological evaluation of naphthoquinone analogs as a novel class of proteasome inhibitors” (Bioorg Med Chem, 2010) can be followed below.

As usually defined, the IC50 is the concentration that inhibits the measured activity by half. A high value points to weaker potency in that assay. The pKa is the negative logarithm of the acid dissociation constant. A higher pKa goes with a weaker acid or stronger base.

A short description of series [1]: Inhibition of chymotrypsin like proteolytic activity of rabbit 26S proteasome. On the set-up: species or system Oryctolagus cuniculus.
Series [2] in a line: Inhibition of trypsin like proteolytic activity of rabbit 26S proteasome. Set-up: species or system Oryctolagus cuniculus.
Series [3] can be described thus: Inhibition of PGPH activity of rabbit 26S proteasome. On the set-up: species or system Oryctolagus cuniculus.
Series [4] in a line: Inhibition of 26S proteasome-mediated chymotrypsin like proteolytic activity in human MCF7 cells. It is filed as cell-based.
Series [5] can be described thus: Inhibition of calpain.
Series [6] can be described thus: Dissociation constant, pKa of the compound. It is filed as physicochemical.

For the molecule `COc1cc(NC2=C(Cl)C(=O)c3ccccc3C2=O)ccc1S(=O)(=O)Nc1ccccc1C`, the IC50 came out at 13.7 µM in series [1], 24.3 µM in series [2] and 30 µM in series [3].

As to `O=C1C(Cl)=C(Nc2ccc(S(=O)(=O)Nc3ccccn3)cc2)C(=O)c2ccccc21`, the IC50 was 1 µM in series [1]; 4.5 µM in series [2]; 4.5 µM in series [3]; 6 µM in series [4]; > 30 µM in series [5].

As to `O=C1C(Cl)=C(Nc2ccc(S(=O)(=O)Nc3nccs3)cc2)C(=O)c2ccccc21`, the results for the IC50 in series [1], in series [2] and in series [3] were 3.3 µM, 8.15 µM and 14.3 µM, respectively. The pKa in series [6] was < 7.91.

For the molecule `Cc1noc(NS(=O)(=O)c2ccc(NC3=C(Cl)C(=O)c4ccccc4C3=O)cc2)c1C`, the results for the IC50 in series [1], in series [2] and in series [3] were 3.9 µM, 9.25 µM and 21.2 µM, respectively. Moreover, in series [6], the pKa is < 7.91.

Regarding `Cc1nnc(NS(=O)(=O)c2ccc(NC3=C(Cl)C(=O)c4ccccc4C3=O)cc2)s1`, the IC50 in series [1] is 6.4 µM; in series [2], 10.7 µM; in series [3], 13.4 µM. For the same molecule, the pKa in series [6] was < 7.91.

On to `Cc1cc(NS(=O)(=O)c2ccc(NC3=C(Cl)C(=O)c4ccccc4C3=O)cc2)no1`, for which the IC50 in series [1] worked out at 11.2 µM; in series [2], 13.2 µM; in series [3], 16.7 µM. In series [6], the pKa was < 7.91.

Regarding `COc1ccc(NS(=O)(=O)c2ccc(NC3=C(Cl)C(=O)c4ccccc4C3=O)cc2OC)cc1`, the values for the IC50 in series [1], in series [2] and in series [3] were 15.3 µM, 23.3 µM and 35 µM, respectively.

For `O=C1C(Cl)=C(Nc2ccc(S(=O)(=O)Nc3ccnn3-c3ccccc3)cc2)C(=O)c2ccccc21`, the IC50 in series [1] turned out to be 16.3 µM; in series [2] it was 20.7 µM; in series [3], 25.6 µM. Besides, the pKa in series [6] is < 7.91.

For `COc1cccc(NS(=O)(=O)c2ccc(NC3=C(Cl)C(=O)c4ccccc4C3=O)cc2)c1`, the IC50 in series [1] stood at 17 µM; in series [2], 24.6 µM; in series [3], 43.5 µM.

On to `Cc1cc(C)nc(NS(=O)(=O)c2ccc(NC3=C(Cl)C(=O)c4ccccc4C3=O)cc2)n1`, for which the IC50 in series [1] was 19 µM; in series [2], 20.9 µM; in series [3], 50.2 µM. In series [6], the pKa was < 7.91.

Take `COc1ccccc1NS(=O)(=O)c1ccc(NC2=C(Cl)C(=O)c3ccccc3C2=O)cc1`: the IC50 in series [1] came out at 20.8 µM; in series [2], 24.7 µM; in series [3], 49.2 µM.

For `Cc1cccc(NS(=O)(=O)c2ccc(NC3=C(Cl)C(=O)c4ccccc4C3=O)cc2)c1`, the IC50 in series [1] was 20.8 µM; in series [2], 55 µM; in series [3] it was > 100 µM.

`CC(C)C[C@H](NC(=O)[C@H](Cc1ccccc1)NC(=O)c1cnccn1)B(O)O` [BORTEZOMIB]: the IC50 in series [2] worked out at 7 µM; in series [3], 0.48 µM.
